Assay results published in patent US8486931B2, “Substituted oxindole compounds” (Abbott GmbH & Co. KG, priority 2007, dated 2013).

The compounds below were run against T1, human vasopressin V1b receptor (Homo sapiens, UniProt P47901) (assay: Vasopressin V1b receptor binding assay). Settings: membranes from CHO-K1 cells with stably expressed human V1b receptors, 1.5 nM 3H-AVP displacement; with more than one stereogenic center: the diastereomer with stronger affinity.
T1 construct: expressed in transfected cells; host or cells: CHO-K1 (cell line hV1b-3H2_CHO), membrane preparation
T1 sequence (P47901 1-424): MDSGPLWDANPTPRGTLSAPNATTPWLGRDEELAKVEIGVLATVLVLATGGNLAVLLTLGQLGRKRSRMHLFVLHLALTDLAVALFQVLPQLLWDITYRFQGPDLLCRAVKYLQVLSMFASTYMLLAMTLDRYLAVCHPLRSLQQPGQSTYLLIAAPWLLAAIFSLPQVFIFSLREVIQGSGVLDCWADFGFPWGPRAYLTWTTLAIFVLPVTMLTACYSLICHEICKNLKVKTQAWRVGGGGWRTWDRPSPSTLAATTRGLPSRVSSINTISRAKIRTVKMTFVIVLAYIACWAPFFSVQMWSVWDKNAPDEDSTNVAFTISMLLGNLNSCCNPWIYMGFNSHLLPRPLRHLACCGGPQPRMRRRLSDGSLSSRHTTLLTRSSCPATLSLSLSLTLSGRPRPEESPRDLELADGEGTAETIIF
Experimental: Such compounds can be investigated in suitable assays which establish the affinity to a receptor, with the affinity constant Ki represening a measure of the potency of the compounds and a smaller value representing a larger potency. The compounds of the invention were tested in the following receptor binding assay for their affinity for the V1 b receptor.
Vasopressin V1 b Receptor Binding Assay:
The test substances were dissolved in a concentration of 10^−2 M in DMSO (dimethyl sulfoxide) and further diluted to 5×10^−4 M to 5×10^−9 M in DMSO. This series of DMSO predilutions was diluted 1:10 with assay buffer. The substance concentration was again diluted 1:5 in the assay mixture (2% DMSO in the mixture).
The membrane pellet was again homogenized and centrifuged as described and then taken up in 50 mM Tris-HCl, pH 7.4, homogenized and stored in aliquots frozen in liquid nitrogen at −190° C.
The incubation buffer was: 50 mM Tris, 10 mM MgCl2, 0.1% BSA, pH 7.4.
The nonspecific binding was determined with 1 μM AVP (Bachem #H1780). All determinations were carried out as triplicate determinations. After incubation (60 minutes at room temperature), the free radioligand was removed by vacuum filtration (Skatron cell harvester 7000) through Whatman GF/B glass fiber filter mats, and the filters were transferred into scintillation vials. The liquid scintillation measurement took place in a Tricarb model 2000 or 2200CA instrument (Packard). Conversion of the measured cpm into dpm was carried out with the aid of a standard quench series.
The binding parameters were calculated by nonlinear regression in SAS.
The above assay was used to measure the affinities of the compounds of the invention for the human vasopressin V1 b receptor and to determine with affinity constants (Ki).

How did the Ki turn out when `CCOc1ccc(OC)cc1C1(N2CCN(c3ccnc(C)c3)CC2)C(=O)N(S(=O)(=O)c2ccc(OC)cn2)c2ccc(C#N)cc21` (racemic) [Example 35, (±)-5-Cyano-3-(2-ethoxy-5-methoxyphenyl)-1-(5-methoxypyridine-2-sulfonyl)-3-[4-(2-methylpyridin-4-yl)piperazin-1-yl]-2,3-dihydro-1H-indol-2-one] was run?
Its Ki is less than 10 nM.

How did the Ki turn out when `CCOc1cc(OC)ccc1C1(N2CCC(N3CCN(C)CC3)CC2)C(=O)N(S(=O)(=O)c2ccc(OC)cn2)c2ccc(C#N)cc21` (racemic) [Example 171, (±)-5-Cyano-3-(2-ethoxy-4-methoxy-phenyl)-1-(5-methoxy-pyridine-2-sulfonyl)-3-[4-(4-methyl-piperazin-1-yl)-piperidin-1-yl]-2,3-dihydro-1H-indol-2-one] was run?
Its Ki is less than 10 nM.

For `CCOc1ccc(CC)cc1C1(N2CCN(c3ccnc(C(C)C)c3)CC2)C(=O)N(S(=O)(=O)c2ccc(OC)cn2)c2ccc(C#N)cc21` (racemic) [Example 166, (±)-5-Cyano-3-(2-ethoxy-5-ethyl-phenyl)-3-[4-(2-isopropyl-pyridin-4-yl)-piperazin-1-yl]-1-(5-methoxy-pyridine-2-sulfonyl)-2,3-dihydro-1H-indol-2-one], which Ki is on record?
The Ki was less than 10 nM.

Which Ki does the source give for `CCOc1ccc(OC)cc1C1(N2CCN(c3ccnc(C4CC4)c3)CC2)C(=O)N(S(=O)(=O)c2cccc3cccnc23)c2ccc(C#N)cc21` (racemic) [Example 66, (±)-5-Cyano-3-[4-(2-cyclopropylpyridin-4-yl)piperazin-1-yl]-3-(2-ethoxy-5-methoxyphenyl)-1-(quinoline-8-sulfonyl)-2,3-dihydro-1H-indol-2-one] here?
The Ki was less than 10 nM.

How did the Ki turn out when `CCOc1ccccc1C1(N2CCN(c3ccnc(C)c3)CC2)C(=O)N(S(=O)(=O)c2ccc(OC)cn2)c2ccc(C#N)cc21` (racemic) [Example 79, (±)-5-Cyano-3-(2-ethoxyphenyl)-1-(5-methoxypyridine-2-sulfonyl)-3-[4-(2-methyl-pyridin-4-yl)piperazin-1-yl]-2,3-dihydro-1H-indol-2-one] was run?
Its Ki is less than 10 nM.

With `CCOc1ccccc1C1(N2CCN(c3ccncc3)CC2)C(=O)N(S(=O)(=O)c2cccc3cccnc23)c2ccc(C#N)cc21` (racemic) [Example 38, (±)-5-Cyano-3-(2-ethoxyphenyl)-3-(4-pyridin-4-ylpiperazin-1-yl)-1-(quinoline-8-sulfonyl)-2,3-dihydro-1H-indol-2-one] as the compound, how does the Ki read?
Its Ki is 10 to 50 nM.

How did the Ki turn out when `CCOc1ccc(OC)cc1C1(N2CCN(c3ccnc(C(C)C)c3)CC2)C(=O)N(S(=O)(=O)c2cccc3cccnc23)c2ccc(C#N)cc21` (racemic) [Example 57, (±)-5-Cyano-3-(2-ethoxy-5-methoxyphenyl)-3-[4-(2-isopropylpyridin-4-yl)piperazin-1-yl]-1-(quinoline-8-sulfonyl)-2,3-dihydro-1H-indol-2-one] was run?
Its Ki is less than 10 nM.

Which Ki does the source give for `CCOc1cc(OC)ccc1C1(N2CCC(N3CCNCC3)CC2)C(=O)N(S(=O)(=O)c2ccc(OC)cn2)c2ccc(C#N)cc21` (racemic) [Example 174, (±)-5-Cyano-3-(2-ethoxy-4-methoxy-phenyl)-1-(5-methoxy-pyridine-2-sulfonyl)-3-(4-piperazin-1-yl-piperidin-1-yl)-2,3-dihydro-1H-indol-2-one] here?
The Ki was less than 10 nM.

`CCOc1nc(Cl)ccc1C1(N2CCN(c3ccnc(C)c3)CC2)C(=O)N(S(=O)(=O)c2ccc(OC)c3cccnc23)c2ccc(C#N)cc21` (racemic) [Example 85, (±)-5-Cyano-3-(6-chloro-2-ethoxypyridin-3-yl)-1-(5-methoxyquinoline-8-sulfonyl)-3-[4-(2-methylpyridin-4-yl)piperazin-1-yl]-2,3-dihydro-1H-indol-2-one] was tested. Which Ki did it give?
The Ki was less than 10 nM.

With `CCOc1cc(OC)ccc1C1(N2CCN(c3ccnc(C(C)C)c3)CC2)C(=O)N(S(=O)(=O)c2ccc(OC)cn2)c2ccc(C#N)cc21` (racemic) [Example 175, (±)-5-Cyano-3-(2-ethoxy-4-methoxy-phenyl)-3-[4-(2-isopropyl-pyridin-4-yl)-piperazin-1-yl]-1-(5-methoxy-pyridine-2-sulfonyl)-2,3-dihydro-1H-indol-2-one] as the compound, how does the Ki read?
Its Ki is less than 10 nM.

Which Ki does the source give for `CCOc1ccccc1C1(N2CCN(c3ccncc3)CC2)C(=O)N(S(=O)(=O)c2ccc(OC)c3cccnc23)c2ccc(C#N)cc21` (racemic) [Example 25, (±)-5-Cyano-3-(2-ethoxyphenyl)-1-(5-methoxyquinoline-8-sulfonyl)-3-(4-pyridin-4-yl-piperazin-1-yl)-2,3-dihydro-1H-indol-2-one] here?
Its Ki is less than 10 nM.

With `CCOc1nc(Cl)ccc1C1(N2CCN(c3ccnc(C(C)C)c3)CC2)C(=O)N(S(=O)(=O)c2ccc(OC)cn2)c2ccc(C#N)cc21` (racemic) [Example 167, (±)-5-Cyano-3-(6-chloro-2-ethoxy-pyridin-3-yl)-3-[4-(2-isopropyl-pyridin-4-yl)-piperazin-1-yl]-1-(5-methoxy-pyridine-2-sulfonyl)-2,3-dihydro-1H-indol-2-one] as the compound, how does the Ki read?
Its Ki is 10 to 50 nM.

For `COc1nc(Cl)ccc1C1(N2CCN(c3ccncc3)CC2)C(=O)N(S(=O)(=O)c2cccc3cccnc23)c2ccc(Cl)cc21` (racemic) [Example 10, (±)-5-Chloro-3-(6-chloro-2-methoxypyridin-3-yl)-3-(4-pyridin-4-ylpiperazin-1-yl)-1-(quinoline-8-sulfonyl)-1,3-dihydroindol-2-one], which Ki is on record?
The Ki was less than 10 nM.

For `COc1ccc(CN(C)C)cc1C1(N2CCN(c3ccncc3)CC2)C(=O)N(S(=O)(=O)c2cccc3cccnc23)c2ccc(Cl)cc21` (racemic) [Example 41, (±)-5-Chloro-3-(5-dimethylaminomethyl-2-methoxyphenyl)-3-(4-pyridin-4-ylpiperazin-1-yl)-1-(quinoline-8-sulfonyl)-1,3-dihydroindol-2-one], which Ki is on record?
Its Ki is 10 to 50 nM.

How did the Ki turn out when `CCOc1nc(Cl)ccc1C1(N2CCN(c3ccncc3)CC2)C(=O)N(S(=O)(=O)c2ccc(OC)cc2OC)c2ccc(C#N)cc21` (racemic) [Example 29, (±)-5-Cyano-3-(6-chloro-2-ethoxypyridin-3-yl)-1-(2,4-dimethoxybenzenesulfonyl)-3-(4-pyridin-4-ylpiperazin-1-yl)-2,3-dihydro-1H-indol-2-one] was run?
Its Ki is 10 to 50 nM.

For `COc1ccccc1C1(N2CCN(c3ccncc3)CC2)C(=O)N(S(=O)(=O)c2cccc3cccnc23)c2ccc(Cl)cc21` (racemic) [Example 37, (±)-5-Chloro-3-(2-methoxyphenyl)-3-(4-pyridin-4-ylpiperazin-1-yl)-1-(quinoline-8-sulfonyl)-1,3-dihydroindol-2-one], which Ki is on record?
The Ki was less than 10 nM.

Which Ki does the source give for `CCOc1ccc(OC)cc1C1(N2CCC(N3CCNCC3)CC2)C(=O)N(S(=O)(=O)c2ccc(OC)cn2)c2ccc(C#N)cc21` (racemic) [Example 86, (±)-5-Cyano-3-(2-ethoxy-5-methoxyphenyl)-1-(5-methoxypyridine-2-sulfonyl)-3-(4-piperazin-1-ylpiperidin-1-yl)-2,3-dihydro-1H-indol-2-one] here?
The Ki was less than 10 nM.

With `COc1nc(Cl)ccc1C1(N2CCN(c3ccncc3)CC2)C(=O)N(S(=O)(=O)c2cccc3cccnc23)c2ccc(C#N)cc21` (racemic) [Example 19, (±)-5-Cyano-3-(6-chloro-2-methoxypyridin-3-yl)-3-(4-pyridin-4-ylpiperazin-1-yl)-1-(quinoline-8-sulfonyl)-2,3-dihydro-1H-indol-2-one] as the compound, how does the Ki read?
Its Ki is 10 to 50 nM.

Which Ki does the source give for `CCOc1ccccc1C1(N2CCN(c3ccncc3)CC2)C(=O)N(S(=O)(=O)c2cccc3c(C)ccnc23)c2ccc(C#N)cc21` (racemic) [Example 16, (±)-5-Cyano-3-(2-ethoxyphenyl)-1-(4-methylquinoline-8-sulfonyl)-3-(4-pyridin-4-yl-piperazin-1-yl)-2,3-dihydro-1H-indol-2-one] here?
Its Ki is less than 10 nM.

How did the Ki turn out when `CCOc1nc(Cl)ccc1C1(N2CCCN(c3ccncc3)CC2)C(=O)N(S(=O)(=O)c2ccc(OC)cn2)c2ccc(C#N)cc21` (racemic) [Example 168, (±)-5-Cyano-3-(6-chloro-2-ethoxy-pyridin-3-yl)-1-(5-methoxy-pyridine-2-sulfonyl)-3-(4-pyridin-4-yl-[1,4]diazepan-1-yl)-2,3-dihydro-1H-indol-2-one] was run?
Its Ki is 10 to 50 nM.

Which Ki does the source give for `CCOc1ccc(OC)cc1C1(N2CCN(c3ccncc3)CC2)C(=O)N(S(=O)(=O)c2ccc(OC)cn2)c2ccc(C#N)cc21` (single isomer, unassigned; (+)) [Example 163, (+)-5-Cyano-3-(2-ethoxy-5-methoxy-phenyl)-1-(5-methoxy-pyridine-2-sulfonyl)-3-(4-pyridin-4-yl-piperazin-1-yl)-2,3-dihydro-1H-indol-2-one] here?
The Ki was less than 10 nM.
